# Source: patent US6737383B1, “Herbicidal oxadiazolidines” (priority 1999, dated 2004)
# Tests used:
# bedstraw = assay: Test B pre/postemergence bedstraw; format: in vivo, Galium aparine
# Outline: (§1)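 Herbicidal effect was estimated by eye on a ten-point control scale after plants spent twelve to sixteen days in a greenhouse following soil or foliar treatment. Foliar sprays targeted plants at one to four leaves; all doses were formulated in a non-phytotoxic solvent with surfactant.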
# cocklebur = assay: Test B pre/postemergence cocklebur; format: in vivo, Xanthium strumarium
# Outline: as §1
# corn = assay: Test B pre/postemergence corn; format: in vivo, Zea mays
# Outline: as §1
# crabgrass = assay: Test B pre/postemergence crabgrass; format: in vivo, Digitaria sanguinalis
# Outline: as §1
# giant foxtail = assay: Test B pre/postemergence giant foxtail; format: in vivo, Setaria faberii
# Outline: as §1
# morningglory = assay: Test B pre/postemergence morningglory; format: in vivo, Ipomoea hederacea
# Outline: as §1
# pigweed = assay: Test B pre/postemergence pigweed; format: in vivo, Amaranthus retroflexus
# Outline: as §1
# rape = assay: Test B pre/postemergence rape; format: in vivo, Brassica napus
# Outline: as §1
# soybean = assay: Test B pre/postemergence soybean; format: in vivo, Glycine max
# Outline: as §1
# velvetleaf = assay: Test B pre/postemergence velvetleaf; format: in vivo, Abutilon theophrasti
# Outline: as §1
# wheat = assay: Test B pre/postemergence wheat; format: in vivo, Triticum aestivum
# Outline: as §1
# wild oat = assay: Test B pre/postemergence wild oat; format: in vivo, Avena fatua
# Outline: as §1
# purple nutsedge = assay: Test B pre/postemergence purple nutsedge; format: in vivo, Cyperus rotundus
# Outline: as §1
# rice = assay: Test B flood test rice; format: in vivo, Oryza sativa
# Outline: (§2)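 Each value is a visual injury score relative to controls, with 10 meaning complete control and 0 no effect. Evaluation took place twelve to sixteen days after the 2-leaf-stage plants were treated and kept in the greenhouse.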
# smallflower flatsedge = assay: Test B flood test smallflower flatsedge; format: in vivo, Cyperus difformis
# Outline: as §2
# duck salad = assay: Test B flood test duck salad; format: in vivo, Heteranthera limosa
# Outline: as §2
# [1] = Preemergence, Rate 62 g/ha, scale of 0 to 10 where 0 is no effect and 10 is complete control
# [2] = Preemergence, Rate 500 g/ha, scale of 0 to 10 where 0 is no effect and 10 is complete control
# [3] = Rate 62 g/ha, Postemergence, scale 0 to 10 (0 no effect, 10 complete control)
# [4] = Rate 125 g/ha, Postemergence, scale of 0 to 10 where 0 is no effect and 10 is complete control
# [5] = Rate 250 g/ha, Postemergence, scale of 0 to 10 where 0 is no effect and 10 is complete control
# [6] = Rate 500 g/ha, Postemergence, scale 0 to 10, 0 no effect, 10 complete control
# [7] = Preemergence, Rate 250 g/ha, scale of 0 to 10 where 0 is no effect and 10 is complete control
# [8] = Rate 62 g/ha, headed Pre-emergence (flood test species), scale 0 to 10 (0 no effect, 10 complete control)
# [9] = Rate 125 g/ha, Pre-emergence, flood test species, scale 0 to 10 where 0 is no effect and 10 is complete control
# [10] = Rate 250 g/ha, Pre-emergence, flood-test species, scale 0 to 10, 0 is no effect, 10 is complete control
# [11] = Rate 500 g/ha, Pre-emergence, flood test species, scale 0 to 10 (0 no effect, 10 complete control)
compound,measurement,setting,value
CC(C)N(C(=O)n1oc(=O)n(Cc2nnsc2Cl)c1=O)c1ccc(F)cc1F [Compound 320],Bedstraw plant response rating,bedstraw; [1],0
same,Bedstraw plant response rating,bedstraw; [2],0
same,Bedstraw plant response rating,bedstraw; [3],0
same,Bedstraw plant response rating,bedstraw; [4],0
same,Cocklebur plant response rating,cocklebur; [1],0
same,Cocklebur plant response rating (0 to 10 scale),"cocklebur; Preemergence, Rate 125 g/ha",0
same,Cocklebur plant response rating,cocklebur; [2],0
same,Cocklebur plant response rating,cocklebur; [3],0
same,Cocklebur plant response rating,cocklebur; [4],0
same,"Plant response rating, Cocklebur",cocklebur; [5],0
same,Cocklebur plant response rating,cocklebur; [6],0
same,Corn plant response rating,corn; [1],0
same,Corn plant response rating (0 to 10 scale),"corn; Preemergence, Rate 125 g/ha",0
same,Corn plant response rating,corn; [7],0
same,Corn plant response rating,corn; [2],0
same,Corn plant response rating,corn; [3],0
same,Corn plant response rating,corn; [4],0
same,"Plant response rating, Corn",corn; [5],0
same,Corn plant response rating,corn; [6],0
same,Crabgrass plant response rating,crabgrass; [1],2
same,Crabgrass plant response rating (0 to 10 scale),"crabgrass; Preemergence, Rate 125 g/ha",3
same,Crabgrass plant response rating,crabgrass; [7],3
same,Crabgrass plant response rating,crabgrass; [2],7
same,Crabgrass plant response rating,crabgrass; [3],0
same,Crabgrass plant response rating,crabgrass; [4],0
same,"Plant response rating, Crabgrass",crabgrass; [5],0
same,Giant foxtail plant response rating,giant foxtail; [1],0
same,Giant foxtail plant response rating,giant foxtail; [7],6
same,Giant foxtail plant response rating,giant foxtail; [2],7
same,Giant foxtail plant response rating,giant foxtail; [3],0
same,Giant foxtail plant response rating,giant foxtail; [4],0
same,"Plant response rating, Giant foxtail",giant foxtail; [5],0
same,Morningglory plant response rating,morningglory; [1],0
same,Morningglory plant response rating (0 to 10 scale),"morningglory; Preemergence, Rate 125 g/ha",0
same,Morningglory plant response rating,morningglory; [7],0
same,Morningglory plant response rating,morningglory; [2],0
same,Morningglory plant response rating,morningglory; [3],1
same,Morningglory plant response rating,morningglory; [4],1
same,"Plant response rating, Morningglory",morningglory; [5],3
same,Redroot pigweed plant response rating,pigweed; [1],0
same,Redroot pigweed plant response rating (0 to 10 scale),"pigweed; Preemergence, Rate 125 g/ha",0
same,Redroot pigweed plant response rating,pigweed; [7],0
same,Redroot pigweed plant response rating,pigweed; [2],0
same,Redroot pigweed plant response rating,pigweed; [3],3
same,Redroot pigweed plant response rating,pigweed; [4],6
same,"Plant response rating, Redroot pigweed",pigweed; [5],6
same,Rape plant response rating,rape; [1],0
same,Rape plant response rating (0 to 10 scale),"rape; Preemergence, Rate 125 g/ha",0
same,Rape plant response rating,rape; [7],0
same,Rape plant response rating,rape; [2],0
same,Rape plant response rating,rape; [3],0
same,Rape plant response rating,rape; [4],3
same,"Plant response rating, Rape",rape; [5],3
same,Soybean plant response rating,soybean; [1],0
same,Soybean plant response rating (0 to 10 scale),"soybean; Preemergence, Rate 125 g/ha",0
same,Soybean plant response rating,soybean; [7],0
same,Soybean plant response rating,soybean; [2],0
same,Soybean plant response rating,soybean; [3],2
same,Soybean plant response rating,soybean; [4],3
same,"Plant response rating, Soybean",soybean; [5],3
same,Velvetleaf plant response rating,velvetleaf; [1],0
same,Velvetleaf plant response rating (0 to 10 scale),"velvetleaf; Preemergence, Rate 125 g/ha",0
same,Velvetleaf plant response rating,velvetleaf; [7],0
same,Velvetleaf plant response rating,velvetleaf; [2],0
same,Velvetleaf plant response rating,velvetleaf; [3],0
same,Velvetleaf plant response rating,velvetleaf; [4],0
same,"Plant response rating, Velvetleaf",velvetleaf; [5],0
same,Wheat plant response rating,wheat; [1],0
same,Wheat plant response rating (0 to 10 scale),"wheat; Preemergence, Rate 125 g/ha",0
same,Wheat plant response rating,wheat; [7],0
same,Wheat plant response rating,wheat; [2],0
same,Wheat plant response rating,wheat; [3],0
same,Wheat plant response rating,wheat; [4],0
same,"Plant response rating, Wheat",wheat; [5],0
same,Wild oats plant response rating,wild oat; [1],0
same,Wild oats plant response rating (0 to 10 scale),"wild oat; Preemergence, Rate 125 g/ha",0
same,Wild oats plant response rating,wild oat; [7],0
same,Wild oats plant response rating,wild oat; [2],0
same,Wild oats plant response rating,wild oat; [3],0
same,Wild oats plant response rating,wild oat; [4],0
same,"Plant response rating, Wild oats",wild oat; [5],0
same,Nutsedge plant response rating,purple nutsedge; [1],0
same,Nutsedge plant response rating (0 to 10 scale),"purple nutsedge; Preemergence, Rate 125 g/ha",0
same,Nutsedge plant response rating,purple nutsedge; [7],0
same,Nutsedge plant response rating,purple nutsedge; [2],0
same,Nutsedge plant response rating,purple nutsedge; [3],0
same,Nutsedge plant response rating,purple nutsedge; [4],0
same,"Plant response rating, Nutsedge",purple nutsedge; [5],0
same,Rice plant response rating,rice; [8],0
same,Rice plant response rating,rice; [9],0
same,Rice plant response rating,rice; [10],0
same,Rice plant response rating,rice; [11],0
same,S. Flatsedge plant response rating,smallflower flatsedge; [8],0
same,S. Flatsedge plant response rating,smallflower flatsedge; [9],0
same,S. Flatsedge plant response rating,smallflower flatsedge; [10],0
same,S. Flatsedge plant response rating,smallflower flatsedge; [11],0
same,Ducksalad plant response rating,duck salad; [8],0
same,Ducksalad plant response rating,duck salad; [9],0
same,Ducksalad plant response rating,duck salad; [10],0
same,Ducksalad plant response rating,duck salad; [11],0
